ChEMBL document CHEMBL1201862, “PubChem BioAssay data set” (2004)
Activity calls are given as the source filed them.

Columns and labels:
[1] = target: T1, Glutathione-S-transferase (Schistosoma japonicum, UniProt Q26513); experiment: GST-antibody interaction or FRET quenching – biochemical, TR-FRET, artefact control for Vif-APOBEC3G degradation inhibitor project, dose response (AID 1117362); format: functional
T1 sequence (Q26513 whole entry): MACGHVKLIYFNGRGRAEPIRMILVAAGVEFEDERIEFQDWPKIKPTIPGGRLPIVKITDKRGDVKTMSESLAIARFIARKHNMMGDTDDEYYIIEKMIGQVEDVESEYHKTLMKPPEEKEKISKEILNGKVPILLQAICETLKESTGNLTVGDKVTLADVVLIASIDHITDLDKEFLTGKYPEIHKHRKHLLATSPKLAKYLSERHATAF

[2] = target: T2, Rac GTPase-activating protein 1 (Homo sapiens, UniProt Q9H0H5); experiment: blockers of MgcRacGAP-driven Rac1 GTP hydrolysis – biochemical, ADP Hunter fluorescence, primary and confirmatory, confirmation (AID 624330); format: functional
T2 sequence (Q9H0H5 whole entry): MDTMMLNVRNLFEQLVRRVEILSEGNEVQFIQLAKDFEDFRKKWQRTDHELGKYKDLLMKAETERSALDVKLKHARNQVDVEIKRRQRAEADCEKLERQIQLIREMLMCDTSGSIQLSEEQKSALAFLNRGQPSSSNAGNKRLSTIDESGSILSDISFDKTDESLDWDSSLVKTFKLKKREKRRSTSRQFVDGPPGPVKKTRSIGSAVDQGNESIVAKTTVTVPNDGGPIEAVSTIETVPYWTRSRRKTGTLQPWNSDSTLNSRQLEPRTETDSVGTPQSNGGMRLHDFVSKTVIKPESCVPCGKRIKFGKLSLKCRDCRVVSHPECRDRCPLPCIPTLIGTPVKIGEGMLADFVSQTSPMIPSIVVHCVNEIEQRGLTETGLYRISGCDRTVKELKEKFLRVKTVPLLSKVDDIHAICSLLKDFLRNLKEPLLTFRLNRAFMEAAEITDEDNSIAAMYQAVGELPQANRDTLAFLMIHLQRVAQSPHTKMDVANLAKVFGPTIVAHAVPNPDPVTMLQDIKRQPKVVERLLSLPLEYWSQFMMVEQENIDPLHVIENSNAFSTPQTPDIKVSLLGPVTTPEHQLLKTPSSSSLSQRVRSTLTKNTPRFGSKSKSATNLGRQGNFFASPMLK

[3] = target: NAD-dependent protein deacylase sirtuin-5, mitochondrial (Homo sapiens, UniProt Q9NXA8); experiment: sirtuin-5 deacylation blockers, concentration series – biochemical, fluorescence imaging, cherry-pick, set 5, dose response (AID 720591);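 further: desuccinylation of succinyl peptide AMC substrate read as fluorescence after trypsin release; potency of inhibitors that lower fluorescence and may act on trypsin instead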
Sequence of NAD-dependent protein deacylase sirtuin-5, mitochondrial (Q9NXA8 whole entry): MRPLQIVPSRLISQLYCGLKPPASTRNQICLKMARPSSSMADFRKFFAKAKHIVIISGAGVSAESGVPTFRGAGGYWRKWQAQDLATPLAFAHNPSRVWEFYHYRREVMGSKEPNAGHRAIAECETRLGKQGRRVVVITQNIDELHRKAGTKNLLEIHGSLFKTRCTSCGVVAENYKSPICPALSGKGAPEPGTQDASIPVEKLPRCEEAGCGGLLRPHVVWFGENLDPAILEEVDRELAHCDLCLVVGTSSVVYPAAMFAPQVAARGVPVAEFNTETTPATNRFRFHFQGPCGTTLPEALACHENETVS

[4] = potency of ADAM10 substrate cleavage blockers – biochemical, QFRET, dose response (AID 743254);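 further: ADAM10 enzyme with the DM2 quenched FRET peptide as substrate; EDANS fluorescence gain as the protease cuts the substrate; inhibitor potency against ADAM10 proteolytic activity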
[5] = target: T3, Disintegrin and metalloproteinase domain-containing protein 17 (Homo sapiens, UniProt P78536); experiment: inhibition of ADAM17 substrate cleavage – biochemical, quenched FRET substrate, counter-screen for ADAM10 exosite inhibitor project, dose response (AID 743253)
T3 sequence (P78536 whole entry, the tested form may be a part): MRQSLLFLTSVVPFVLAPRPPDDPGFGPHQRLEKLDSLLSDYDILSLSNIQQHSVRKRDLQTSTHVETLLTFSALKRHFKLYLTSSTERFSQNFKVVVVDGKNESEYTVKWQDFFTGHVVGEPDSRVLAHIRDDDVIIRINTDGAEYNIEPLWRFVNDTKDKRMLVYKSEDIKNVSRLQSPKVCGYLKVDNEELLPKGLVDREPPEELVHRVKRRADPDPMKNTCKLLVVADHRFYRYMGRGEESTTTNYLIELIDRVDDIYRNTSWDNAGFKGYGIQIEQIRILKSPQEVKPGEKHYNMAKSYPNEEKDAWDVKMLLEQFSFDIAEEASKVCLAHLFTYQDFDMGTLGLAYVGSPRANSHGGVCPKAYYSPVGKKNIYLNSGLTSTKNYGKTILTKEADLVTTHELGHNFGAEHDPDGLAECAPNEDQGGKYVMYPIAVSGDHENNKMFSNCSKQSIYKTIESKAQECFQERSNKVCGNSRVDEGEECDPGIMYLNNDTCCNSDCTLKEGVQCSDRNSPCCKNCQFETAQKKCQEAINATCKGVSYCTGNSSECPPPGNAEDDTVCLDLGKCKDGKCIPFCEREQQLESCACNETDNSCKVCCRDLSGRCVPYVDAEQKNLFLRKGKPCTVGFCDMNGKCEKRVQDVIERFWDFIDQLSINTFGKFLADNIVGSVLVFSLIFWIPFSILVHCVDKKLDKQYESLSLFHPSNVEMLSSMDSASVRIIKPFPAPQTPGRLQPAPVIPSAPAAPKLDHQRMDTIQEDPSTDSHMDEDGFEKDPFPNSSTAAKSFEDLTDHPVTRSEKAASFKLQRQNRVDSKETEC

Large T antigen = Large T antigen (Simian virus 40, UniProt P03070); format: functional, Betapolyomavirus macacae;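 further: Confirmatory-stage PubChem screen for compounds that inhibit SV40 T antigen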
Sequence of Large T antigen (P03070 whole entry): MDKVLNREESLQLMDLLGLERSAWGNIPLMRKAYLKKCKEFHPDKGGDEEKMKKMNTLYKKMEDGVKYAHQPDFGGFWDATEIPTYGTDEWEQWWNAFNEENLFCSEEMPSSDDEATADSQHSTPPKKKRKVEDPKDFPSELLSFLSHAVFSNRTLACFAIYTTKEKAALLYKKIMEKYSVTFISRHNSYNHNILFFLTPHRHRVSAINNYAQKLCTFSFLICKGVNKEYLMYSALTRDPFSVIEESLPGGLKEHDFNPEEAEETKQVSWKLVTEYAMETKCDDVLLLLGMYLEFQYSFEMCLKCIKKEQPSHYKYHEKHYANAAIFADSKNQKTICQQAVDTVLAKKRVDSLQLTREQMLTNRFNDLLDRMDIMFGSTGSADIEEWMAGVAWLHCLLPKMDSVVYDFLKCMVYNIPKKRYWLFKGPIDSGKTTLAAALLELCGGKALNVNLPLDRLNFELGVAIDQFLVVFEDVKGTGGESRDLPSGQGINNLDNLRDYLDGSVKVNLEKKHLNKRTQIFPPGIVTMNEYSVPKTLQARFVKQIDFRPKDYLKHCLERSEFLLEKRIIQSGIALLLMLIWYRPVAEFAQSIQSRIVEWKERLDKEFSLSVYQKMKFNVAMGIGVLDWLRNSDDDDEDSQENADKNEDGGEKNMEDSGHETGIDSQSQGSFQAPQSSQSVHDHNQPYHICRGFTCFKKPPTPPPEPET

[6] = target: Glucose-6-phosphate 1-dehydrogenase (Homo sapiens, UniProt P11413); experiment: inhibition of Homo sapiens G6PD, dose series – biochemical, fluorescence, selectivity assay for P. falciparum G6PD inhibitor project, dose response (AID 504792); format: functional
Sequence of Glucose-6-phosphate 1-dehydrogenase (P11413 whole entry): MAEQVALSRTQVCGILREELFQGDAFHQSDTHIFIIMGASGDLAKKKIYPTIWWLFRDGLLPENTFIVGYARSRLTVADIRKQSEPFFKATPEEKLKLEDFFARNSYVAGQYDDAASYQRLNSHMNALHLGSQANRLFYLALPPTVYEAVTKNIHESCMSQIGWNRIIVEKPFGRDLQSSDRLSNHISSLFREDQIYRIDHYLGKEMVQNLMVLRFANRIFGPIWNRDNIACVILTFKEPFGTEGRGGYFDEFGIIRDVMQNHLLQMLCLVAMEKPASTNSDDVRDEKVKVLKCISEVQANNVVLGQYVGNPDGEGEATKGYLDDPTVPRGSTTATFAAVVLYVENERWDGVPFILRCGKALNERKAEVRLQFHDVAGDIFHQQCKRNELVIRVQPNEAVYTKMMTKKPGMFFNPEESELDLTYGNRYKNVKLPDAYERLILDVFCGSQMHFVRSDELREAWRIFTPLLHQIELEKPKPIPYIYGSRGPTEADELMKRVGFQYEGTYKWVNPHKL

[7] = Luminescence Cell-Based Dose Response HTS to Identify Activators of Luciferase Translation or Activity in H4 […] Cells. [Related pubchem assays: 1829 (Project Summary), 1814 (Primary HTS)]; format: functional
Paired box protein Pax-8 = Paired box protein Pax-8 (Homo sapiens, UniProt Q06710); experiment: PAX8 transcriptional activity inhibition in RMG-I – RMG-I cells, luciferase, cherry-pick, dose response (AID 687027); format: functional, cell-based;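 further: luciferase reporter driven by Pax8 target thyroperoxidase promoter measured by SteadyGlo luminescence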
Sequence of Paired box protein Pax-8 (Q06710 whole entry): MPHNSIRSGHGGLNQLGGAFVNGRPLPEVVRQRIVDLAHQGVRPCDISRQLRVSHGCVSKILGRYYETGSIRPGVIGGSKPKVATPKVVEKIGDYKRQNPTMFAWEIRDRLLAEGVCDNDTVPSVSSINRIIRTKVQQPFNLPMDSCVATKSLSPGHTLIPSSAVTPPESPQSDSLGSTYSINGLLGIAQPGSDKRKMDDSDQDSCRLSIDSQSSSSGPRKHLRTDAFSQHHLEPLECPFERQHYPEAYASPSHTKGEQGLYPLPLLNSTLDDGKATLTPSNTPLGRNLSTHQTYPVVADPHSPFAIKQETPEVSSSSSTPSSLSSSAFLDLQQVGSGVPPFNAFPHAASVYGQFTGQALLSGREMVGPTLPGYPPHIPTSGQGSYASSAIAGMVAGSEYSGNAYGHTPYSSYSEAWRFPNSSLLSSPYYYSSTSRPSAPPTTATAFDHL

Protein RecA = target: T4, Protein RecA (Mycobacterium tuberculosis, UniProt P9WHJ3); experiment: Fluorescence Cell-Free Homogeneous Dose Retest to Identify Inhibitors of RecA-Intein Splicing Activity. [Related pubchem assays (depositor defined):AID2097, AID2223, AID489010, AID492950]; format: functional
T4 sequence (P9WHJ3 whole entry): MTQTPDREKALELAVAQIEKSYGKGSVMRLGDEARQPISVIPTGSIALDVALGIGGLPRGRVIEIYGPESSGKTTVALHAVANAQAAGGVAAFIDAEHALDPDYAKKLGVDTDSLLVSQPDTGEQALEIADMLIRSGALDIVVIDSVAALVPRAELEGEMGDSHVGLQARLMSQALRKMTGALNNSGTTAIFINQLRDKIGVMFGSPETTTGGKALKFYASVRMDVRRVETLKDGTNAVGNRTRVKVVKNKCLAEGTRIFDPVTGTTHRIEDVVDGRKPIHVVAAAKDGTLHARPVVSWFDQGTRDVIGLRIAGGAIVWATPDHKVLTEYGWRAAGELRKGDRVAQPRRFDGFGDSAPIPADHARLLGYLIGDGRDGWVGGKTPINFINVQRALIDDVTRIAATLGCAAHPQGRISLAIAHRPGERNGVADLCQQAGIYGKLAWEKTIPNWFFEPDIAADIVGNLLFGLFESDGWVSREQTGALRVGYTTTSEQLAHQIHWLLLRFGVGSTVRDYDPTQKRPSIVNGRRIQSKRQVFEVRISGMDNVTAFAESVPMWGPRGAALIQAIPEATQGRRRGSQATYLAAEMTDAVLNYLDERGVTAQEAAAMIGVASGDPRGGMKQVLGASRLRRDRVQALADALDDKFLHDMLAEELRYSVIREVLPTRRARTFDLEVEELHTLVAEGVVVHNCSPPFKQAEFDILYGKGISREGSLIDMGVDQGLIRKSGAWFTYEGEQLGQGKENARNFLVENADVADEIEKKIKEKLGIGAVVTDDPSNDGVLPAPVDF

H4 = experiment: Luminescence Cell-Based Dose Response HTS to Identify Activators of 5'UTR Stem-Loop Driven Prion Protein mRNA Translation in H4 Neuroglioblastoma Cells. [Related pubchem assays: 1829 (Project Summary), 1814 (Primary HTS)]; format: functional; details: Homo sapiens
[8] = target: T5, Replicative DNA helicase DnaB (Mycobacterium tuberculosis, UniProt P9WMR3); experiment: DnaB intein splicing inhibitors, dose response, biochemical, cell-free fluorescence (AID 449749); format: functional
T5 sequence (P9WMR3 whole entry): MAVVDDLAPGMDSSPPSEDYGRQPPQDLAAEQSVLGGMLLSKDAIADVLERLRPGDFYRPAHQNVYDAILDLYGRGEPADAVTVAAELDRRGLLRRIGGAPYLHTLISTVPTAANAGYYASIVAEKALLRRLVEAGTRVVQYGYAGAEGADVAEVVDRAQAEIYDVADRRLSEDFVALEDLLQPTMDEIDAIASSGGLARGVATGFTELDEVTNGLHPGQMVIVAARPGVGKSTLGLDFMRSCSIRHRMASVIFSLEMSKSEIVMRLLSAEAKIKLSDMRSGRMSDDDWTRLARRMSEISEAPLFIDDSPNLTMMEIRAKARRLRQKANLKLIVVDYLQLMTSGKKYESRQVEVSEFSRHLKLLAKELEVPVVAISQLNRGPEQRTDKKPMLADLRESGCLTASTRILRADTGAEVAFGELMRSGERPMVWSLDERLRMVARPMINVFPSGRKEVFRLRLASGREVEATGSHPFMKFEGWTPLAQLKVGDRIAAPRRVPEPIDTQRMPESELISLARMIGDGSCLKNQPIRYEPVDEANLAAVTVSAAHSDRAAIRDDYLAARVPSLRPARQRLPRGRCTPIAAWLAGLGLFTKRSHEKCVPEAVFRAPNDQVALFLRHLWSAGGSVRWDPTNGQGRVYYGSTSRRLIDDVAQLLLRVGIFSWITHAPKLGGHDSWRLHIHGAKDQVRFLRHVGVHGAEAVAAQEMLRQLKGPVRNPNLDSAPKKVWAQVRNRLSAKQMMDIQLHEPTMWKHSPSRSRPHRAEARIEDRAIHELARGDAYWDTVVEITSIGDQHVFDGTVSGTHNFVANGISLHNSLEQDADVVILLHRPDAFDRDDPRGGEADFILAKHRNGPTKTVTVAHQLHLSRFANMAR

[9] = general cell-killing toxicity readout – plate reader, dry powder samples, cytotoxicity control for PAX8 inhibitor project, dose response (AID 743021); format: functional, cell-based
[10] = target: Mitogen-activated protein kinase 10 (Homo sapiens, UniProt P53779); experiment: Dose response biochemical screening assay for inhibitors of c-Jun N-Terminal Kinase 3 (JNK3). [Related pubchem assays: 746 ]
Sequence of Mitogen-activated protein kinase 10 (P53779 whole entry): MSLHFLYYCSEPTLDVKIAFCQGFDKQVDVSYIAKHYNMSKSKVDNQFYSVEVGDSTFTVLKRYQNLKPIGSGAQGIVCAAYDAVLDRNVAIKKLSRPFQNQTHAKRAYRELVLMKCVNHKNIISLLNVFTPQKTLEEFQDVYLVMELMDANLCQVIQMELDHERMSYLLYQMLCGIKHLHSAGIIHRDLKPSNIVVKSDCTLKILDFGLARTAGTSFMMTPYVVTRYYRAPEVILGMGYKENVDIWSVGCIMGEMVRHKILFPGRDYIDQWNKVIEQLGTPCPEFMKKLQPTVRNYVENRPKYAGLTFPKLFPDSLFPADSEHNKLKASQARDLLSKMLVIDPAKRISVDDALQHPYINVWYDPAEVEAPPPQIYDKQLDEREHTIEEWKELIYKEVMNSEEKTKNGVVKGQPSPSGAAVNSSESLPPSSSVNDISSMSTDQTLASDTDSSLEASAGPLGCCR

H9c2 = experiment: cells; format: functional, cell-based; details: Rattus norvegicus, H9c2, Myocardium;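 further: confirmatory concentration-response retest of ultra-high-throughput screening hits for modulation of myocardial damage; cell death induced by hydrogen peroxide oxidative stress; compound pretreatment for 60 min then peroxide exposure for 2 h; potency is for protecting the cells against peroxide damage rather than for killing them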
Caspase-6 = target: T6, Caspase-6 (Homo sapiens, UniProt P55212); experiment: inhibition of CASP6 peptide cleavage – biochemical, VEID-R110 fluorescence, cherry-pick, dose response (AID 720632)
T6 sequence (P55212 whole entry): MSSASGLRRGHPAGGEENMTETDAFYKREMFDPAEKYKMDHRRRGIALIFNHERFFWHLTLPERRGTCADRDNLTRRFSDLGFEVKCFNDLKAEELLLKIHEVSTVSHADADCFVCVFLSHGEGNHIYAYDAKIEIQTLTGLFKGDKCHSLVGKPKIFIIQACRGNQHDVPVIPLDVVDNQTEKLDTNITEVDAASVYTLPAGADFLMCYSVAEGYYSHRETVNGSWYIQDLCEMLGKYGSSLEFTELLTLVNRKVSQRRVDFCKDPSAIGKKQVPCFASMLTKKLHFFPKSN

[11] = inhibition of ADAM10 peptide cleavage – biochemical, FRET peptide substrate, recombinant human ADAM10, selectivity assay for ADAM17 exosite inhibitor project, dose response (AID 743259);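 further: ADAM10 enzyme cleaving a FRET peptide substrate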
[12] = target: T3, Disintegrin and metalloproteinase domain-containing protein 17; experiment: exosite inhibitors of ADAM17, dose response, biochemical (AID 743260)
[13] = OVCAR-3 cell viability loss – plate reader, dry powder samples, PAX8 inhibitor project, dose response (AID 743044); format: functional, cell-based
[14] = IGROV1 cell killing – plate reader, dry powder samples, PAX8 inhibitor project, dose response (AID 743043); format: functional, cell-based; details: IGROV-1
[15] = OVCAR8 cell viability loss – plate reader, dry powder samples, PAX8 project, dose response (AID 743197); format: functional, cell-based; details: OVCAR-8
[16] = target: E3 ubiquitin-protein ligase Mdm2 (Homo sapiens, UniProt Q00987); experiment: MDM2-luc reporter signal enhancers, multi-concentration potency testing, MDM2 ubiquitin-protein ligase inhibitor program, whole-cell format, luminescence detection, 384-well microplate (AID 1394); format: functional;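 further: MDM2 E3 inhibitors raise luminescence so EC50 is for signal enhancement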
Sequence of E3 ubiquitin-protein ligase Mdm2 (Q00987 whole entry): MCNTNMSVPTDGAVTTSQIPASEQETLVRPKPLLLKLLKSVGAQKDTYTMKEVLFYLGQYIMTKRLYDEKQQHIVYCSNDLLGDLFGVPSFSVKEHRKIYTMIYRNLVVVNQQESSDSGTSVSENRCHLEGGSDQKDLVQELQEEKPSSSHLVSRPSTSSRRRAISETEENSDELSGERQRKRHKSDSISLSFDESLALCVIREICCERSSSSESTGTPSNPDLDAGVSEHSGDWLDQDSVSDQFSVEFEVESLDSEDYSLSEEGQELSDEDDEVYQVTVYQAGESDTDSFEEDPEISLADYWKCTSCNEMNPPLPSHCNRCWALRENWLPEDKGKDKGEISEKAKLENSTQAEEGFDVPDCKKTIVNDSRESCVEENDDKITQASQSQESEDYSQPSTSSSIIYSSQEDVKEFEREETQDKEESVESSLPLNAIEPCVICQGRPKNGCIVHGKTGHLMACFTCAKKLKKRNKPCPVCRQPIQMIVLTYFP

HEK293 = experiment: EBV LMP1 TES2 canonical NF-kB signalling blockers – cell-based, HEK293, luciferase, cherry-pick, dose response (AID 588343); format: functional; details: Homo sapiens

Compound: CC1Cc2ccccc2N1Cc1cc(=O)n2ccsc2n1 (configuration not stated)
- IC50 [1]: > 100 µM (active)

Compound: CC(=O)N1CCN(c2ccc(NCc3ccc4c(c3)OCO4)cc2)CC1
- IC50 [1]: 16.3 µM (active)
- IC50 [2]: 12.9 µM (active)

Compound: CCC(C)N1C(=O)N(C)C2NC(=O)NC21 (configuration not stated)
- AC50 [3]: 2.23 µM (active)

Compound: COC(=O)C1=C(c2ccccc2OCc2ccccc2)C[C@@H]2CC[C@H]1N2C(=O)NCc1ccc(C(C)(C)C)cc1
- IC50 [4]: > 69.5 µM (inactive)
- IC50 [5]: > 69.5 µM (inactive)

Compound: COCCn1nnnc1C(c1cc2cc(OC)c(OC)cc2[nH]c1=O)N1CCN(c2ccc(O)cc2)CC1 (configuration not stated)
- IC50 [1]: > 100 µM (active)
- IC50 (Large T antigen): 6.67 µM (active)
- IC50 [6]: > 80 µM (inactive)

Compound: Cc1ccc(-n2nc(C)c(NC(=O)CCl)c2C)cc1C
- EC50 [7]: 115 µM (active)
- AC50 (Paired box protein Pax-8): 6.77 µM (active)
- EC50 (Protein RecA): 16 µM (active)
- EC50 (H4): > 120 µM (not active)
- AC50 [8]: > 380 µM (inactive)
- AC50 [9]: 39.5 µM (active)

Compound: O=c1c2ccccc2nc(-c2ccco2)n1CCCn1ccnc1
- IC50 [10]: > 31 µM (not active)

Compound: O=C(NO)c1ccc(C(=O)N(C2CCCCC2)C2CCCCC2)cc1
- IC50 [4]: 14.6 µM (inactive)
- IC50 [5]: 34.9 µM (inactive)
- IC50 (H9c2): > 79 µM (inactive)

Compound: Cc1ccc(NC(=O)c2noc3c2CCC3)cc1C
- AC50 (Caspase-6): 5.83 µM (active)

Compound: COC(=O)c1ccccc1NC(=O)COC(=O)CSCC(=O)N1CCOCC1
- IC50 [10]: > 93.1 µM (not active)

Compound: COc1ccccc1/C=C/C1C(C(=O)OCC(C)C)=C(C)N=C2SCCC(=O)N21 (configuration not stated)
- IC50 [11]: > 69.5 µM (inactive)
- IC50 [12]: > 69.5 µM (inactive)

Compound: FC(F)(F)c1cc(CCN2C(=S)NC[C@@H]2Cc2ccccc2)cc(C(F)(F)F)c1
- IC50 [5]: > 69.5 µM (inactive)

Compound: Cc1ccc(C)c(N2CCN(S(=O)(=O)c3ccc4c(c3)CC(=O)N4C)CC2)c1
- AC50 [3]: > 30 µM (inactive)

Compound: O=C1NC(=O)C(Cc2ccc(Cl)cc2)(c2ccccc2)N1 (configuration not stated)
- IC50 [11]: 29.4 µM (inactive)
- IC50 [12]: 3.67 µM (active)

Compound: O=C(Nc1ccc(F)cc1)N1C[C@@H]2N[C@H](C1)[C@@H]2c1ccc(-c2ccccc2F)cc1
- AC50 (Paired box protein Pax-8): 13.8 µM (active)
- AC50 [9]: 55.6 µM (active)
- AC50 [13]: 32 µM (active)
- AC50 [14]: 42.5 µM (active)
- AC50 [15]: > 70 µM (inactive)

Compound: Cc1ccc(OCc2nnc(SC/C=C/c3ccccc3)n2Cc2ccco2)cc1
- IC50 [11]: 16 µM (inactive)
- IC50 [12]: > 69.6 µM (inactive)

Compound: CC(C)c1ccc(OCc2cccc(C(=O)N/N=C/c3cccnc3)c2)cc1
- EC50 [16]: 0.02 µM (active)
- AC50 (HEK293): 0.98 µM (active)

Compound: O=C(C1Cc2ccccc2CN1S(=O)(=O)c1ccc(F)cc1)N1CCOCC1 (configuration not stated)
- AC50 [3]: 23.6 µM (active)
